Where “and” joins values, the source holds several entries; their conditions need not be identical. Identical values can stand only once. Like-named read-outs stand apart in the source and are kept apart here.
Tests used:
[1] = format: in vitro ADME; conditions: 10 μM
Procedure: An aliquot of 450 μL of human, mouse or hamster plasma were exposed to 10 μM of compound and incubated at 37° C. At 0, 5, 15, 30, 60, 90 and 120 min, 50 μL of plasma sample was mixed with 200 μL of ice-cold methanol (70%). 50 μL supernatant was dried and reconstituted in 100 μL H2O. Propantheline bromide was used as positive control. The supernatant was then subjected to LC-MS analysis (LC-MS condition: Instrument: Thermo TSQ Quantiva. Column: Kinetex […] (50×2.1 mm, […]). LC buffers: A): 0.1% formic acid, and B): acetonitrile. MRM methods: (269.2-112 positive), Indinavir (IS, 614.4-421.2 positive, IS)). The stability results are shown in FIGS. 2-4 (human plasma, mouse plasma and hamster plasma, respectively). Compound A is stable in human and mouse plasma up to 2 hours and stable up to […] in hamster plasma. Compound 23 was converted to compound A in hamster plasma in less than 5 min.

[2] = Quantification of Compound A in mouse lung, brain and plasma; format: in vivo, CD-1 mice; conditions: for concentration at 7 h / Brain concentration / Lung concentration: 7 h; for Plasma concentration, average / Plasma concentration: assuming density 1 g/mL
Procedure: CD-1 mice were treated with Compound A PO (30 mg/kg, 3 mice) or IV (15 mg/kg, 3 mice). Lung and brain samples were collected at 7 h.
Lung and brain samples were homogenized with 5× volume of 20% MeOH.
50 μL tissue homogenate was mixed with 250 μL MeOH (containing 40 nM indinavir as IS).
The supernatant was air-dried, then reconstituted in 150 μL of H2O.
Subjected to LC-MS analysis.
Calibration curve range: 30 nM to 30 μM.
Instrument: TSQ Quantiva, Column: Kinetex XB—C8 (50×2.1 mm, 2.6 μm)
LC buffers: A): 0.1% formic acid, and B): Acetonitrile
MRM methods: Compound A (269.2→112 positive), Indinavir (IS, 614.4→421.2 positive, IS)

[3] = IV 15 mg/kg, individual mice, 15 mg/kg
[4] = PO 30 mg/kg, individual mice, 30 mg/kg

## N#C[C@@]1(n2ccc(N)nc2=O)O[C@H](CO)[C@@H](O)[C@H]1O [Compound A, (2R,3R,4S,5R)-2-(4-amino-2-oxopyrimidin-1(2H)-yl)-3,4-dihydroxy-5-(hydroxymethyl)-tetrahydrofuran-2-carbonitrile]
[1]; hamster
  stable in plasma up to: up to 24 h
[1]; human
  stable in plasma up to: up to 2 hours
[1]; mouse
  stable in plasma up to: up to 2 hours
[2]; CD-1, mouse, brain, iv, 15 mg/kg, IV 15 mg/kg, average of 3 mice, assuming tissue density 1 g/mL, read-out: Brain concentration, average
  concentration at 7 h: 270 nM
[2]; CD-1, mouse, brain, iv, 15 mg/kg, IV 15 mg/kg, average of 3 mice, read-out: Brain concentration, average
  concentration at 7 h: 71.3 ng/g
[2]; CD-1, mouse, brain, po, 30 mg/kg, PO 30 mg/kg, average of 3 mice, assuming tissue density 1 g/mL, read-out: Brain concentration, average
  concentration at 7 h: 200 nM
[2]; CD-1, mouse, brain, po, 30 mg/kg, PO 30 mg/kg, average of 3 mice, read-out: Brain concentration, average
  concentration at 7 h: 53.1 ng/g
[2]; CD-1, mouse, brain, po, 30 mg/kg, PO 30 mg/kg, individual mice, assuming tissue density 1 g/mL, read-out: Brain concentration
  concentration at 7 h: 280 nM
[2]; CD-1, mouse, brain, po, 30 mg/kg, PO 30 mg/kg, individual mice, read-out: Brain concentration
  concentration at 7 h: 73.9 ng/g
[2]; CD-1, mouse, lung, iv, 15 mg/kg, IV 15 mg/kg, average of 3 mice, assuming tissue density 1 g/mL, read-out: Lung concentration, average
  concentration at 7 h: 1200 nM
[2]; CD-1, mouse, lung, iv, 15 mg/kg, IV 15 mg/kg, average of 3 mice, read-out: Lung concentration, average
  concentration at 7 h: 321 ng/g
[2]; CD-1, mouse, lung, iv, 15 mg/kg, IV 15 mg/kg, individual mice, assuming tissue density 1 g/mL, read-out: Lung concentration
  concentration at 7 h: 830 nM
[2]; CD-1, mouse, lung, iv, 15 mg/kg, IV 15 mg/kg, individual mice, read-out: Lung concentration
  concentration at 7 h: 223 ng/g
[2]; CD-1, mouse, lung, po, 30 mg/kg, PO 30 mg/kg, average of 3 mice, assuming tissue density 1 g/mL, read-out: Lung concentration, average
  concentration at 7 h: 4010 nM
[2]; CD-1, mouse, lung, po, 30 mg/kg, PO 30 mg/kg, average of 3 mice, read-out: Lung concentration, average
  concentration at 7 h: 1080 ng/g
[2]; [3]
  Brain concentration: 39.3 ng/g and 56.9 ng/g and 117.8 ng/g
  Lung concentration: 412.0 ng/g and 327.1 ng/g
  Plasma concentration: 370 nM and 610 nM and 590 nM
[2]; IV 15 mg/kg, individual mice, assuming tissue density 1 g/mL, 15 mg/kg, read-out: Brain concentration
  concentration at 7 h: 150 nM and 210 nM and 440 nM
[2]; IV 15 mg/kg, individual mice, assuming tissue density 1 g/mL, 15 mg/kg, read-out: Lung concentration
  concentration at 7 h: 1540 nM and 1220 nM
[2]; IV 15 mg/kg, average of 3 mice
  Plasma concentration, average: 520 nM
[2]; [4]
  Brain concentration: 40.8 ng/g and 44.7 ng/g
  Lung concentration: 881.8 ng/g and 730.8 ng/g and 1,615 ng/g
  Plasma concentration: 2090 nM and 2320 nM and 4990 nM
[2]; PO 30 mg/kg, individual mice, assuming tissue density 1 g/mL, 30 mg/kg, read-out: Brain concentration
  concentration at 7 h: 150 nM and 170 nM
[2]; PO 30 mg/kg, individual mice, assuming tissue density 1 g/mL, 30 mg/kg, read-out: Lung concentration
  concentration at 7 h: 3290 nM and 2720 nM and 6020 nM
[2]; PO 30 mg/kg, average of 3 mice
  Plasma concentration, average: 3130 nM

Reference: patent US20250114389A1, “NUCLEOSIDES AND NUCLEOTIDES ANALOGS AS ANTIVIRAL AGENTS” (Emory University, priority 2021, published 2025)
